Measured values published in PubChem BioAssay (NCI).
Several values for one entry are separate records, joined by “and”; a condition that tells them apart may be missing. Equal entries are not always repeated.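 Exposure lasted 48 hours, with cells grown in 96-well plates and compounds tested at five concentrations. GI50 is the concentration that inhibits growth by half. TGI: concentration producing complete growth inhibition.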

How the values were obtained:
Experiment in all cases: NCI anticancer screen, dose series, 48 h
BT-549 breast = test system: BT-549 breast
T-47D breast = test system: T-47D breast
HS 578T breast = test system: HS 578T breast
DLD-1 colon = test system: DLD-1 colon
M19-MEL melanoma = test system: M19-MEL melanoma
XF 498 CNS = test system: XF 498 CNS
MDA-N = test system: MDA-N
HOP-18 NSCLC = test system: HOP-18 NSCLC

| SMILES | GI50 (BT-549 breast) | TGI (BT-549 breast) | GI50 (T-47D breast) | TGI (T-47D breast) | GI50 (HS 578T breast) | TGI (HS 578T breast) [µM] | other results |
| --- | --- | --- | --- | --- | --- | --- | --- |
| COc1cc(/C=C/C(=O)c2c(C)n([O-])c3ccc(Cl)cc3[n+]2=O)cc(OC)c1OC | 18.7 µM | 42.5 µM | 40.5 µM | > 100 µM | 12.4 µM | 64.3 |  |
| Cc1ccc(S(=O)(=O)Nc2nc3ccccc3nc2Nc2ccc3nsnc3c2)cc1 | 4.25 µM and 3.42 µM | 26.3 µM and > 29.6 µM | 3.34 µM and 3.47 µM | > 100 µM | 5.62 µM and 4.21 µM | > 100 |  |
| CCCCCCCCCCCC[n+]1ccc(C(N)=O)cc1 | 1.93 µM | 4.7 µM | 3.06 µM | 11.8 µM | 2.55 µM | 8.49 |  |
| C/C(=N\O)C(CN1CCCCC1)C(c1ccccc1)c1c(O)c2ccccc2oc1=O (stereo not drawn) |  |  |  |  |  |  | TGI (DLD-1 colon): > 100 µM; TGI (M19-MEL melanoma): > 100 µM; TGI (XF 498 CNS): > 100 µM |
| OC(CNc1ccnc2cc(Cl)ccc12)CNC1CCCCC1 (stereo not drawn) | 3.69 µM | 16.7 µM | 4.54 µM | 18.7 µM | 4.95 µM | 23.8 |  |
| CCCN(CCC)C(=O)[C@H](CC)[C@@H]1CC[C@@H](C)[C@@H]([C@H](C)[C@@H](O)[C@@H](C)C(=O)[C@H](CC)C2O[C@]3(C=C[C@@H](O)[C@]4(CC[C@@](C)([C@H]5CC[C@](O)(CC)[C@H](C)O5)O4)O3)[C@H](C)C[C@@H]2C)O1 (stereo partly drawn) | 3.05 µM | 13.2 µM | 3.08 µM | 14.5 µM | 2.75 µM | 9.01 |  |
| Oc1ccc(N=Nc2ccc(N=Nc3ccccc3)cc2)cc1 | 0.899 µM | 9.06 µM | 1.61 µM | 6.73 µM | 12.4 µM | 51 |  |
| O=C1/C(=C/c2ccc(Cl)cc2)COc2ccc(O)c(O)c21 | 1.77 µM | 4.04 µM | 1.2 µM | 2.98 µM | 1.8 µM | 7.02 |  |
| CC1SC(=O)SC1C (stereo not drawn) |  |  |  | > 100 µM |  | > 100 | TGI (MDA-N): > 100 µM |
| CC(C)C[C@@H]1NC(=O)[C@@H]2CCCN2C(=O)[C@@H]2CCCN2C(=O)[C@H](CC(C)C)NC(=O)[C@H](CO)NC(=O)[C@H](CCCCN)NC(=O)[C@H]([C@H](C)O)NC(=O)[C@@H]2CCCC[C@@H](NC1=O)C(=O)N[C@@H](Cc1ccccc1)C(=O)N1CCC[C@H]1C(=O)N[C@@H](CC(=O)O)C(=O)NCC(=O)N[C@@H](CCCN=C(N)N)C(=O)N2 | > 50 µM | > 50 µM | > 50 µM | > 50 µM | > 50 µM | > 50 |  |
| N#Cc1nc2cc(F)c(F)cc2nc1-c1ccc(Cl)cc1 | 19.8 µM | 40.3 µM | 20.9 µM | > 62.1 µM | 1.72 µM | 4.43 |  |
| C[CH2][Sn]([Cl])([Cl])[CH2]C |  |  |  |  |  |  | GI50 (HOP-18 NSCLC): 27 µM; TGI (HOP-18 NSCLC): 55.4 µM; GI50 (DLD-1 colon): 36 µM; TGI (DLD-1 colon): > 100 µM; GI50 (M19-MEL melanoma): 26 µM; TGI (M19-MEL melanoma): > 67.2 µM |
| CC(=O)c1c[nH]cc1CO |  |  |  | > 10 µM |  |  | TGI (MDA-N): > 10 µM |
| Oc1c(N=Nc2ccccc2)c2ccccc2c2ccc3ccccc3c12 |  | > 100 µM |  | > 100 µM |  | > 100 |  |
| CN1CCn2c(c(Sc3ccc(C(=O)NO)cc3)c3ccccc32)C1=O | 1.92 µM | 4.3 µM | 1.53 µM | 3.91 µM | 2.41 µM | > 29 |  |
| N#CC(NNC(=O)c1ccccc1O)c1ccccc1 (stereo not drawn) |  |  |  |  |  |  | TGI (HOP-18 NSCLC): > 100 µM; TGI (DLD-1 colon): > 100 µM; TGI (M19-MEL melanoma): > 100 µM |

| SMILES | GI50 (BT-549 breast) | TGI (BT-549 breast) | GI50 (T-47D breast) | TGI (T-47D breast) | GI50 (HS 578T breast) | TGI (HS 578T breast) [µM] | other results |
| --- | --- | --- | --- | --- | --- | --- | --- |
| CCCCCN(CCCCC)CC(O)c1cc2c(c3ccccc13)CCCC2 (stereo not drawn) | 12.4 µM and 13.8 µM | 25.5 µM and 29.8 µM | 3.04 µM and 7.77 µM | 14.2 µM and 25.7 µM | 8.51 µM | 23.9 |  |
| COc1cc(-c2oc3c(OC)c(O)c(OC)c(O)c3c(=O)c2OC)ccc1O |  | > 100 µM |  | 67.1 µM |  | 40.1 | TGI (MDA-N): > 100 µM |
| Cc1cccc2c1C(=O)OC2(C)c1cccc2ccccc12 (stereo not drawn) |  |  |  |  |  |  | TGI (HOP-18 NSCLC): > 100 µM; TGI (DLD-1 colon): > 100 µM; TGI (M19-MEL melanoma): > 100 µM; TGI (XF 498 CNS): 86 µM |
| NC(CCSC(F)F)C(=O)O (stereo not drawn) |  |  |  |  |  |  | TGI (DLD-1 colon): > 100 µM; TGI (M19-MEL melanoma): > 100 µM; TGI (XF 498 CNS): > 100 µM |
| COCCNC(=O)c1ccc(-c2nc3ccc4[nH]ncc4c3c3c2CCCC3)cc1 | 1.22 µM | 9.34 µM | 1.97 µM | 16.3 µM | 0.88 µM | 4.68 |  |
| C[C@@H]1C[C@@]2(O[C@@H]2C)C(=O)O[C@@H]2CCN3CC=C(COC(=O)[C@]1(C)O)[C@H]23 |  | > 100 µM |  | > 100 µM |  | > 100 | TGI (MDA-N): > 100 µM |
| C=CC(=O)Nc1cccc(C)c1Nc1ncc2cc(-c3c(Cl)c(OC)cc(OC)c3Cl)ccc2n1 | 1.64 µM | 9.34 µM | 1.64 µM | > 100 µM | 13.8 µM | > 100 |  |
| Cc1cc(C)c(NS(=O)c2cccc(Cl)c2)c(C)c1 (stereo not drawn) |  | > 100 µM |  |  |  |  | TGI (MDA-N): > 100 µM |
| O=C1CCCC1NC(=O)C(F)(F)F (stereo not drawn) |  |  |  |  |  |  | TGI (DLD-1 colon): > 100 µM; TGI (M19-MEL melanoma): > 100 µM; TGI (XF 498 CNS): > 100 µM |
| CC1/C(=N/Nc2ccc([N+](=O)[O-])cc2)CC2C3(C)CCC2(C(C)C(=O)O)C(=O)C13 (stereo not drawn) | 12.3 µM | > 100 µM | 4.14 µM | > 100 µM | 3.55 µM | > 100 |  |
| Clc1ccc2c(c1)-c1ccccc1C1=NCCN12 | 2.41 µM | 9.89 µM | 2.73 µM | 8.27 µM | 2.92 µM | 11.8 |  |
| NCCCCN(Cc1nc2ccccc2[nH]1)[C@H]1CCCc2cccnc21 | 22.8 µM | > 100 µM | 21.4 µM | > 100 µM | 19 µM | > 91.4 |  |
| CC1=NN(C(=O)c2ccc(Cl)cc2)C(=O)/C1=C/c1ccc(O)cc1 |  |  |  |  |  |  | TGI (DLD-1 colon): > 100 µM; TGI (M19-MEL melanoma): > 100 µM; TGI (XF 498 CNS): > 100 µM |
| CS(=O)(=O)Nc1cc(-c2ccc3ncnc(Nc4ccc5c(cnn5Cc5ccccc5F)c4)c3c2)cnc1Cl | 1.57 µM | 8.73 µM | 0.367 µM | 3.14 µM | 0.249 µM | 1.84 |  |
| Cc1ccc(S(=O)(=O)c2c3[nH]c4ccccc4nc3n3c2nc2ccccc23)cc1 |  |  |  |  |  |  | TGI (DLD-1 colon): > 100 µM; TGI (M19-MEL melanoma): > 100 µM; TGI (XF 498 CNS): > 100 µM |
